pEC50: −log10 of the molar value. Counter-ions that a name gives are not always drawn.
System: recombinant NL-Rluc virus
Assay: Inhibition of HIV replication (NL-RLuc luciferase reporter virus in MT-2 cells)
Type: cell-based
Details: Human immunodeficiency virus 1, MT2, 120 h, MT-2 cells infected with NL-RLuc virus, 5 days of incubation, luciferase readout; serum condition of the table not specified

Row | SMILES | pEC50
1 | Cc1cc2nc(-c3cccc(-c4ccc(F)cc4)c3)cn2c(N2CCC(C)(C)CC2)c1[C@H](OC(C)(C)C)C(=O)O [Example 3, (S)-2-(tert-Butoxy)-2-(5-(4,4-dimethylpiperidin-1-yl)-2-(4′-fluoro-[1,1′-biphenyl]-3-yl)-7-methylimidazo[1,2-a]pyridin-6-yl)acetic Acid] | 7.59
2 | Cc1cc2nc(-c3cccc(-c4cccc(F)c4)c3)cn2c(N2CCC(C)(C)CC2)c1[C@H](OC(C)(C)C)C(=O)O [Example 4, (S)-2-(tert-butoxy)-2-(5-(4,4-dimethylpiperidin-1-yl)-2-(3′-fluoro-[1,1′-biphenyl]-3-yl)-7-methylimidazo[1,2-a]pyridin-6-yl)acetic Acid] | 7.68
3 | Cc1ccc(-c2cccc(-c3cn4c(N5CCC(C)(C)CC5)c([C@H](OC(C)(C)C)C(=O)O)c(C)cc4n3)c2)cc1 [Example 2, (S)-2-(tert-butoxy)-2-(5-(4,4-dimethylpiperidin-1-yl)-7-methyl-2-(4′-methyl-[1,1′-biphenyl]-3-yl)imidazo[1,2-a]pyridin-6-yl)acetic Acid] | 7.49
4 | Cc1cc2nc(-c3cccc(-c4cccc(C#N)c4)c3)cn2c(N2CCC(C)(C)CC2)c1[C@H](OC(C)(C)C)C(=O)O [Example 7, (S)-2-(tert-Butoxy)-2-(2-(3′-cyano-[1,1′-biphenyl]-3-yl)-5-(4,4-dimethylpiperidin-1-yl)-7-methylimidazo[1,2-a]pyridin-6-yl)acetic Acid] | 8.22
5 | Cc1cc2nc(-c3cccc(-c4ccccc4)c3)cn2c(N2CCC(C)(C)CC2)c1[C@H](OC(C)(C)C)C(=O)O [Example 1, (S)-2-(2-([1,1′-Biphenyl]-3-yl)-5-(4,4-dimethylpiperidin-1-yl)-7-methylimidazo[1,2-a]pyridin-6-yl)-2-(tert-butoxy)acetic Acid] | 7.29
6 | Cc1cc2nc(-c3cccc(-c4cnn(Cc5ccccc5)c4)c3)cn2c(N2CCC(C)(C)CC2)c1[C@H](OC(C)(C)C)C(=O)O [Example 8, (S)-2-(2-(3-(1-Benzyl-1H-pyrazol-4-yl)phenyl)-5-(4,4-dimethylpiperidin-1-yl)-7-methylimidazo[1,2-a]pyridin-6-yl)-2-(tert-butoxy)acetic Acid] | 7.66
7 | Cc1cc(-c2cccc(-c3cn4c(N5CCC(C)(C)CC5)c([C@H](OC(C)(C)C)C(=O)O)c(C)cc4n3)c2)n(C)n1 [Example 10, (S)-2-(tert-Butoxy)-2-(2-(3-(1,3-dimethyl-1H-pyrazol-5-yl)phenyl)-5-(4,4-dimethylpiperidin-1-yl)-7-methylimidazo[1,2-a]pyridin-6-yl)acetic Acid] | 8.15
8 | Cc1cc2nc(-c3cccc(-c4cc(C(F)(F)F)nn4C)c3)cn2c(N2CCC(C)(C)CC2)c1[C@H](OC(C)(C)C)C(=O)O [Example 11, (S)-2-(tert-Butoxy)-2-(5-(4,4-dimethylpiperidin-1-yl)-7-methyl-2-(3-(1-methyl-3-(trifluoromethyl)-1H-pyrazol-5-yl)phenyl)imidazo[1,2-a]pyridin-6-yl)acetic Acid] | 7.68
9 | Cc1ccc(-c2cccc(-c3cn4c(N5CCC(C)(C)CC5)c([C@H](OC(C)(C)C)C(=O)O)c(C)cc4n3)c2)c(F)c1 [Example 6, (S)-2-(tert-Butoxy)-2-(5-(4,4-dimethylpiperidin-1-yl)-2-(2′-fluoro-4′-methyl-[1,1′-biphenyl]-3-yl)-7-methylimidazo[1,2-a]pyridin-6-yl)acetic Acid] | 7.68
10 | Cc1cc2nc(-c3cccc(-c4ccc(F)cc4)c3)cn2c(-c2ccc(F)cc2)c1[C@H](OC(C)(C)C)C(=O)O [Example 17, (S)-2-(tert-Butoxy)-2-(2-(4′-fluoro-[1,1′-biphenyl]-3-yl)-5-(4-fluorophenyl)-7-methylimidazo[1,2-a]pyridin-6-yl)acetic Acid] | 6.80
11 | Cc1cc2nc(-c3cccc(-c4ccc(F)cc4)c3)cn2c(-c2ccc3c(c2)CCCO3)c1[C@H](OC(C)(C)C)C(=O)O [Example 18, (S)-2-(tert-Butoxy)-2-(5-(chroman-6-yl)-2-(4′-fluoro-[1,1′-biphenyl]-3-yl)-7-methylimidazo[1,2-a]pyridin-6-yl)acetic Acid] | 8.15
12 | Cc1cc2nc(-c3cccc(-c4ccc(F)cc4F)c3)cn2c(N2CCC(C)(C)CC2)c1[C@H](OC(C)(C)C)C(=O)O [Example 5, (S)-2-(tert-Butoxy)-2-(2-(2′,4′-difluoro-[1,1′-biphenyl]-3-yl)-5-(4,4-dimethylpiperidin-1-yl)-7-methylimidazo[1,2-a]pyridin-6-yl)acetic Acid] | 7.54
13 | Cc1cc2nc(-c3cccc(-c4ccc(F)cc4)c3)cn2c(-c2ccc3c(c2)C(C)(C)CCO3)c1[C@H](OC(C)(C)C)C(=O)O [Example 19, (S)-2-(tert-Butoxy)-2-(5-(4,4-dimethylchroman-6-yl)-2-(4′-fluoro-[1,1′-biphenyl]-3-yl)-7-methylimidazo[1,2-a]pyridin-6-yl)acetic Acid] | 7.02
14 | Cc1ccc(-c2c([C@H](OC(C)(C)C)C(=O)O)c(C)cc3nc(-c4cccc(-c5ccc(F)cc5)c4)cn23)cc1 [Example 14, (S)-2-(tert-butoxy)-2-(2-(4′-fluoro-[1,1′-biphenyl]-3-yl)-7-methyl-5-(p-tolyl)imidazo[1,2-a]pyridin-6-yl)acetic Acid] | 7.70
15 | Cc1cc2nc(-c3cccc(-c4cnn(C)c4)c3)cn2c(N2CCC(C)(C)CC2)c1[C@H](OC(C)(C)C)C(=O)O [Example 9, (S)-2-(tert-Butoxy)-2-(5-(4,4-dimethylpiperidin-1-yl)-7-methyl-2-(3-(1-methyl-1H-pyrazol-4-yl)phenyl)imidazo[1,2-a]pyridin-6-yl)acetic Acid] | 8.22

Same assay, conditions: MT-2 cells infected with NL-RLuc virus, 5 days of incubation, luciferase readout; serum condition of the table not specified

Row | SMILES | pEC50
16 | Cc1cc2nc(-c3cccc(-c4ccc(F)cc4)c3)cn2c(-c2ccc3c4c(ccnc24)CCO3)c1[C@H](OC(C)(C)C)C(=O)O [Example 13, (2S)-2-(tert-Butoxy)-2-(5-(2,3-dihydropyrano[4,3,2-de]quinolin-7-yl)-2-(4′-fluoro-[1,1′-biphenyl]-3-yl)-7-methylimidazo[1,2-a]pyridin-6-yl)acetic Acid.TFA] | 6.40
17 | Cc1cc2nc(-c3cccc(-c4ccc(F)cc4)c3)cn2c(-c2cc(F)c3c(c2C)CCCO3)c1[C@H](OC(C)(C)C)C(=O)O [Example 16, (2S)-2-(tert-Butoxy)-2-(5-(8-fluoro-5-methylchroman-6-yl)-2-(4′-fluoro-[1,1′-biphenyl]-3-yl)-7-methylimidazo[1,2-a]pyridin-6-yl)acetic Acid] | 8.40
18 | Cc1cc2nc(-c3cccc(-c4ccc(F)cc4)c3)cn2c(-c2cc(F)c3c(c2C)CCCO3)c1[C@H](OC(C)(C)C)C(=O)O [Example 15, (2S)-2-(tert-Butoxy)-2-(5-(8-fluoro-5-methylchroman-6-yl)-2-(4′-fluoro-[1,1′-biphenyl]-3-yl)-7-methylimidazo[1,2-a]pyridin-6-yl)acetic Acid] | 6.76
19 | Cc1cc2nc(-c3cccc(-c4ccc(F)cc4)c3)cn2c(-c2ccc3c4c(ccnc24)CCO3)c1[C@H](OC(C)(C)C)C(=O)O [Example 12, (2S)-2-(tert-Butoxy)-2-(5-(2,3-dihydropyrano[4,3,2-de]quinolin-7-yl)-2-(4′-fluoro-[1,1′-biphenyl]-3-yl)-7-methylimidazo[1,2-a]pyridin-6-yl)acetic Acid.TFA] | 7.72
